The term solubility denotes the dissolved amount per volume that the medium holds. A lower solubility goes with little dissolved substance.

Common to all, as to type: physicochemical
A short description of series [1]: Solid-state stability under accelerated storage, purity via HPLC. Particulars: for stability with respect to change in TAK-924 chemical purity (% Area) and physical form / overall chemical and physical stability: accelerated storage; for stability with respect to change in TAK-924 chemical purity (% Area) and physical form: compared to Form 1; for overall chemical and physical stability: overall stability data. Here is the method:
(§1) Solid-state stability studies of Forms 1, 9, and 12 were performed to assess the relative stability of new anhydrous Forms 9 and 12. Solid samples of each pattern were stored in open and closed glass vials at accelerated conditions (40° C./75% RH open and closed, and 60° C. closed). […]

A short description of a further series: Solubility of solid form. Particulars: pH 2.33; pH of 2.33.
A short description of series [2]: Solid-state stability under accelerated storage, polymorphic form via XRPD. The settings on record: T-6 Days, hydrochloride. The method, then: as §1
[3] abbreviates: 40° C./75% RH Closed, T-3.5 Weeks, hydrochloride.
Setting [4] is: 40° C./75% RH Closed, T-6 Days, hydrochloride.
Where [5] appears, read: 40° C./75% RH Open, T-3.5 Weeks, hydrochloride.
[6] abbreviates: 40° C./75% RH Open, T-6 Days, hydrochloride.
The mark [7] stands for this setting: 60° C. (closed), T-3.5 Weeks, hydrochloride.
The mark [8] stands for this setting: 60° C. (closed), T-6 Days, hydrochloride.

Molecules are shown by their SMILES.

Consider `Cl.NS(=O)(=O)OC[C@@H]1C[C@@H](n2ccc3c(N[C@H]4CCc5ccccc54)ncnc32)C[C@@H]1O` [Compound Form 12, ((1S,2S,4R)-4-{4-[(1S)-2,3-dihydro-1H-inden-1-ylamino]-7H-pyrrolo[2,3-d]pyrimidin-7-yl}-2-hydroxycyclopentyl)methyl sulfamate hydrochloride], for which, in series [1], the “stability with respect to change in TAK-924 chemical purity (% Area) and physical form” value is recorded as “stable when compared to Form 1”; the “overall chemical and physical stability” value was “chemically and physically stable”.

As for `Cl.NS(=O)(=O)OC[C@@H]1C[C@@H](n2ccc3c(N[C@H]4CCc5ccccc54)ncnc32)C[C@@H]1O` [Compound Form 9, ((1S,2S,4R)-4-{4-[(1S)-2,3-dihydro-1H-inden-1-ylamino]-7H-pyrrolo[2,3-d]pyrimidin-7-yl}-2-hydroxycyclopentyl)methyl sulfamate hydrochloride], in series [1], the “stability with respect to change in TAK-924 chemical purity (% Area) and physical form” value is recorded as “stable when compared to Form 1”; the “overall chemical and physical stability” value was “chemically and physically stable”. Also, the solubility in “Solubility of solid form” is ~7800 µg/mL.

Regarding `Cl.NS(=O)(=O)OC[C@@H]1C[C@@H](n2ccc3c(N[C@H]4CCc5ccccc54)ncnc32)C[C@@H]1O` [Compound Form 1, ((1S,2S,4R)-4-{4-[(1S)-2,3-dihydro-1H-inden-1-ylamino]-7H-pyrrolo[2,3-d]pyrimidin-7-yl}-2-hydroxycyclopentyl)methyl sulfamate hydrochloride], the “XRPD Results (polymorphic form after accelerated storage)” value in series [2] (40° C./75% RH Closed) and in series [2] (60° C. (closed)) was “Form 1” throughout. The “HPLC Purity (% Area TAK-924)” value in series [1] (setting [3]) is recorded as 98.1 % Area; in series [1] (setting [4]), 98.6 % Area; in series [1] (setting [5]) it was 98.8 % Area; in series [1] (setting [6]) it was 98.9 % Area; in series [1] (setting [7]), 86.6 % Area; in series [1] (setting [8]), 94.4 % Area. In addition, the “HPLC Purity change from T-0” value is “(−0.9%)” in series [1] (setting [3]); “(−0.4%)” in series [1] (setting [4]); “(−0.2%)” in series [1] (setting [5]); “(−0.1%)” in series [1] (setting [6]); “(−13.4%)” in series [1] (setting [7]); “(−5.6%)” in series [1] (setting [8]). In addition, in series [1] (Initial (T-0), before accelerated storage, hydrochloride), the “HPLC Purity (% Area TAK-924), Initial (T-0)” value turned out to be 99.0 % Area.

The values are drawn from patent US20240368165A1, “SOLID STATE FORMS OF HYDROCHLORIDE SALT OF ((1S,2S,4R)-4-{4-[(1S)-2,3-DIHYDRO-1H-INDEN-1-YLAMINO]-7H-PYRROLO[2,3-D]PYRIMIDIN-7-YL}-2-HYDROXYCYCLOPENTYL)METHYL SULFAMATE” (Takeda Pharmaceutical Company Limited, priority 2020, published 2024).
